# Patent US7192924B2, “Corticotropin releasing factor 2 receptor agonists” (priority 2002, dated 2007)
# Peptide text beside a SMILES is read from it.
# What was measured:
# CRF2R = molecular target: T1, CRF2R (Homo sapiens, UniProt Q13324); test: CRF2R agonist activity (EC50, Emax), called comparative CRF binding; format: cell-based; conditions: read-out: CRF2R EC50
# T1 sequence (Q13324 1-411): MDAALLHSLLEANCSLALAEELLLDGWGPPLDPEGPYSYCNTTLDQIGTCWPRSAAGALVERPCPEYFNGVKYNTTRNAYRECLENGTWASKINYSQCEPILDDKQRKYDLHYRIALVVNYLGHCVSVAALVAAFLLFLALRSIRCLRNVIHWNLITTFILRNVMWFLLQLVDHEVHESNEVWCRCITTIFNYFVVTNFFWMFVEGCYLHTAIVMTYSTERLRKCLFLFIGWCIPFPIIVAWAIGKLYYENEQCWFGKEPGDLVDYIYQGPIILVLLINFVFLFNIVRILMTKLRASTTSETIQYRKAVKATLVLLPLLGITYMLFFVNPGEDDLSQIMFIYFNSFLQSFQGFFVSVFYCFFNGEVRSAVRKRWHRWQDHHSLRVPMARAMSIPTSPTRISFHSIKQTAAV
# Summary of the method: (§1)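 Recombinant CRF1R or CRF2R cells were exposed to peptide. Reporter expression linked to cAMP response element was then quantitated, relative to vehicle control.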
# CRF1R = molecular target: T2, CRF1R (Homo sapiens, UniProt P34998); test: CRF1R agonist activity (EC50, Emax), called comparative CRF binding; format: cell-based; conditions: read-out: CRF1R EC50
# T2 sequence (P34998 24-415): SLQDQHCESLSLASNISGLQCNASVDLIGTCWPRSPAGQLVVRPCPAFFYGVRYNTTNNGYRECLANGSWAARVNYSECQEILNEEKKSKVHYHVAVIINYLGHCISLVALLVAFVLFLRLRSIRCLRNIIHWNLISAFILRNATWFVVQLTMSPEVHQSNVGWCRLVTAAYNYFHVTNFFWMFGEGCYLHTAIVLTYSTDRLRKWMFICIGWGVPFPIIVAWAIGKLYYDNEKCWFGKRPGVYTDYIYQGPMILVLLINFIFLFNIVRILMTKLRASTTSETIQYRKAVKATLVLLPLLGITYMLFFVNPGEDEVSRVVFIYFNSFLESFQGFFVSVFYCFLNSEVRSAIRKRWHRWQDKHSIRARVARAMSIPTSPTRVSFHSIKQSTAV
# Summary of the method: as §1
SMILES,EC50 (CRF2R) [µM],EC50 (CRF1R) [µM]
CC[C@H](C)[C@H](NC(=O)[C@H](CCCNC(=N)N)NC(=O)[C@H](C)NC(=O)[C@H](CC(N)=O)NC(=O)[C@H](CCC(N)=O)NC(=O)[C@H](CCC(=O)O)NC(=O)[C@H](C)NC(=O)[C@H](CCCNC(=N)N)NC(=O)[C@H](CCC(=O)O)NC(=O)[C@H](CCCNC(=N)N)NC(=O)[C@H](CCC(N)=O)NC(=O)[C@H](CO)NC(=O)[C@H](CCC(N)=O)NC(=O)[C@@H](NC(=O)[C@H](CCCCN)NC(=O)[C@H](CCC(=O)O)NC(=O)[C@H](CC(C)C)NC(=O)[C@H](CCC(=O)O)NC(=O)[C@H](CC(C)C)NC(=O)[C@H](CC(C)C)NC(=O)[C@@H](NC(=O)[C@H](CCCNC(=N)N)NC(=O)[C@H](CC(C)C)NC(=O)[C@H](CC(C)C)NC(=O)[C@H](CC(C)C)NC(=O)[C@H](CC(C)C)NC(=O)[C@@H]1CCCN1C(=O)[C@H](CC(C)C)NC(=O)[C@H](CC(=O)O)NC(=O)[C@@H](NC(=O)[C@H](CO)NC(=O)[C@H](CC(C)C)NC(=O)[C@H](CO)NC(=O)[C@@H]1CCCN1C(=O)[C@H](CC(N)=O)NC(=O)[C@@H](N)CC(=O)O)[C@@H](C)CC)[C@@H](C)O)[C@@H](C)O)C(=O)N[C@@H](Cc1ccccc1)C(=O)N[C@@H](CC(=O)O)C(=O)N[C@@H](CCCNC(=N)N)C(=O)N[C@H](C(N)=O)C(C)C [compound 338] (H-DNPSLSIDLPLLLLRTLLELEKTQSQRERAEQNARIFDRV-NH2; N-terminus assumed),0.0193,≥ 1
CC[C@H](C)[C@H](NC(=O)[C@H](CCCNC(=N)N)NC(=O)[C@H](C)NC(=O)[C@H](CC(N)=O)NC(=O)[C@H](CCC(N)=O)NC(=O)[C@H](CCC(=O)O)NC(=O)[C@H](C)NC(=O)[C@H](CCCNC(=N)N)NC(=O)[C@H](CCC(=O)O)NC(=O)[C@H](CCCNC(=N)N)NC(=O)[C@H](CCC(N)=O)NC(=O)[C@H](CO)NC(=O)[C@H](CCC(N)=O)NC(=O)[C@@H](NC(=O)[C@H](CCCCN)NC(=O)[C@H](CCC(=O)O)NC(=O)[C@H](CC(C)C)NC(=O)[C@H](CCC(=O)O)NC(=O)[C@H](CC(C)C)NC(=O)[C@H](CC(C)C)NC(=O)[C@@H](NC(=O)[C@H](CCCNC(=N)N)NC(=O)[C@H](CC(C)C)NC(=O)[C@H](CC(C)C)NC(=O)[C@@H](NC(=O)[C@H](CC(C)C)NC(=O)[C@@H]1CCCN1C(=O)[C@H](CC(C)C)NC(=O)[C@H](CC(=O)O)NC(=O)[C@@H](NC(=O)[C@H](CO)NC(=O)[C@H](CC(C)C)NC(=O)[C@H](CO)NC(=O)[C@@H]1CCCN1)[C@@H](C)CC)[C@@H](C)CC)[C@@H](C)O)[C@@H](C)O)C(=O)N[C@@H](Cc1ccccc1)C(=O)N[C@@H](C)C(=O)N[C@@H](CCCNC(=N)N)C(=O)N[C@H](C(N)=O)C(C)C [compound 332] (H-PSLSIDLPLILLRTLLELEKTQSQRERAEQNARIFARV-NH2; N-terminus assumed),0.00995,≥ 1
CC[C@H](C)[C@H](N)C(=O)N[C@H](C(=O)N[C@@H](CC(C)C)C(=O)N[C@@H](CO)C(=O)N[C@@H](CC(C)C)C(=O)N[C@@H](CC(=O)O)C(=O)N[C@H](C(=O)N1CCC[C@H]1C(=O)N[C@H](C(=O)NCC(=O)N[C@@H](CC(C)C)C(=O)N[C@@H](CC(C)C)C(=O)N[C@@H](CCC(N)=O)C(=O)N[C@H](C(=O)N[C@@H](CC(C)C)C(=O)N[C@@H](CC(C)C)C(=O)N[C@@H](CCC(=O)O)C(=O)N[C@@H](CCC(N)=O)C(=O)N[C@@H](C)C(=O)N[C@@H](CCCNC(=N)N)C(=O)N[C@@H](CCC(N)=O)C(=O)N[C@@H](CCC(=O)O)C(=O)N[C@@H](C)C(=O)N[C@@H](C)C(=O)N[C@@H](CCCNC(=N)N)C(=O)N[C@@H](CCC(=O)O)C(=O)N[C@@H](CCC(N)=O)C(=O)N[C@@H](C)C(=O)N[C@H](C(=O)N[C@H](C(=O)N[C@@H](CC(N)=O)C(=O)N[C@@H](C)C(=O)N[C@@H](CCCNC(=N)N)C(=O)N[C@H](C(=O)N[C@@H](CC(C)C)C(=O)N[C@@H](C)C(=O)N[C@@H](CCCNC(=N)N)C(=O)N[C@H](C(N)=O)C(C)C)[C@@H](C)CC)[C@@H](C)O)[C@@H](C)O)[C@@H](C)CC)[C@@H](C)CC)C(C)C)C(C)C [compound 123] (H-IVLSLDVPIGLLQILLEQARQEAAREQATTNARILARV-NH2; N-terminus assumed),0.00349,> 1
CC[C@H](C)[C@H](NC(=O)[C@H](CCC(N)=O)NC(=O)[C@H](C)NC(=O)[C@H](CC(N)=O)NC(=O)[C@H](CCC(N)=O)NC(=O)[C@H](CCC(=O)O)NC(=O)[C@H](C)NC(=O)[C@H](CCCNC(=N)N)NC(=O)[C@H](CCC(=O)O)NC(=O)[C@H](CCCNC(=N)N)NC(=O)[C@H](CCC(N)=O)NC(=O)[C@H](CO)NC(=O)[C@H](CCC(N)=O)NC(=O)[C@@H](NC(=O)[C@H](CCCCN)NC(=O)[C@H](CCC(=O)O)NC(=O)[C@H](CC(C)C)NC(=O)[C@H](CCC(=O)O)NC(=O)[C@H](CC(C)C)NC(=O)[C@H](CC(C)C)NC(=O)[C@@H](NC(=O)[C@H](CCCNC(=N)N)NC(=O)[C@H](CC(C)C)NC(=O)[C@H](CC(C)C)NC(=O)[C@H](CC(C)C)NC(=O)[C@H](CC(C)C)NC(=O)[C@@H]1CCCN1C(=O)[C@H](CC(C)C)NC(=O)[C@H](CC(=O)O)NC(=O)[C@@H](NC(=O)[C@H](CO)NC(=O)[C@H](CC(C)C)NC(=O)[C@H](CO)NC(=O)[C@@H]1CCCN1C(=O)[C@H](CC(N)=O)NC(=O)[C@@H](N)CC(=O)O)[C@@H](C)CC)[C@@H](C)O)[C@@H](C)O)C(=O)N[C@@H](Cc1ccccc1)C(=O)N[C@@H](C)C(=O)N[C@@H](CCC(N)=O)C(=O)N[C@H](C(N)=O)C(C)C [compound 327] (H-DNPSLSIDLPLLLLRTLLELEKTQSQRERAEQNAQIFAQV-NH2; N-terminus assumed),0.0284,≥ 1
CC[C@H](C)[C@H](NC(=O)[C@H](C)NC(=O)[C@H](CC(N)=O)NC(=O)[C@H](CCC(N)=O)NC(=O)[C@H](CCC(=O)O)NC(=O)[C@H](C)NC(=O)[C@H](CCCNC(=N)N)NC(=O)[C@H](CCC(=O)O)NC(=O)[C@H](CCCNC(=N)N)NC(=O)[C@H](CCC(N)=O)NC(=O)[C@H](CO)NC(=O)[C@H](CCC(N)=O)NC(=O)[C@@H](NC(=O)[C@H](CCCNC(=N)N)NC(=O)[C@H](C)NC(=O)[C@H](CC(C)C)NC(=O)[C@H](CCC(=O)O)NC(=O)[C@H](CC(C)C)NC(=O)[C@H](CC(C)C)NC(=O)[C@@H](NC(=O)[C@H](CCCNC(=N)N)NC(=O)[C@H](CC(C)C)NC(=O)[C@H](CC(C)C)NC(=O)[C@H](Cc1ccc(O)cc1)NC(=O)[C@H](Cc1ccccc1)NC(=O)[C@@H]1CCCN1C(=O)[C@H](CC(C)C)NC(=O)[C@H](CC(=O)O)NC(=O)[C@@H](NC(=O)[C@H](CO)NC(=O)[C@H](CC(C)C)NC(=O)[C@H](CO)NC(=O)[C@@H]1CCCN1C(=O)[C@H](CC(N)=O)NC(=O)[C@@H](N)CC(=O)O)[C@@H](C)CC)[C@@H](C)O)[C@@H](C)O)C(=O)N[C@H](C(=O)N[C@@H](Cc1ccccc1)C(=O)N[C@@H](C)C(=O)N[C@@H](CO)C(=O)N[C@H](C(N)=O)C(C)C)[C@@H](C)CC [compound 183] (H-DNPSLSIDLPFYLLRTLLELARTQSQRERAEQNAIIFASV-NH2; N-terminus assumed),0.00793,0.415
CC[C@H](C)[C@H](N)C(=O)N[C@H](C(=O)N[C@@H](CC(C)C)C(=O)N[C@@H](CO)C(=O)N[C@@H](CC(C)C)C(=O)N[C@@H](CC(=O)O)C(=O)N[C@H](C(=O)N1CCC[C@H]1C(=O)N[C@H](C(=O)NCC(=O)N[C@@H](CC(C)C)C(=O)N[C@@H](CC(C)C)C(=O)N[C@@H](CCC(N)=O)C(=O)N[C@H](C(=O)N[C@@H](CC(C)C)C(=O)N[C@@H](CC(C)C)C(=O)N[C@@H](CCC(=O)O)C(=O)N[C@@H](CCC(N)=O)C(=O)N[C@@H](CCC(=O)O)C(=O)N[C@@H](CCCCN)C(=O)N[C@@H](CCC(N)=O)C(=O)N[C@@H](CCC(=O)O)C(=O)N[C@@H](CCCCN)C(=O)N[C@@H](CCC(=O)O)C(=O)N[C@@H](CCCCN)C(=O)N[C@@H](CCC(N)=O)C(=O)N[C@@H](CCC(N)=O)C(=O)N[C@@H](C)C(=O)N[C@H](C(=O)N[C@H](C(=O)N[C@@H](CC(N)=O)C(=O)N[C@@H](C)C(=O)N[C@@H](CCCNC(=N)N)C(=O)N[C@H](C(=O)N[C@@H](CC(C)C)C(=O)N[C@@H](C)C(=O)N[C@@H](CCCNC(=N)N)C(=O)N[C@H](C(N)=O)C(C)C)[C@@H](C)CC)[C@@H](C)O)[C@@H](C)O)[C@@H](C)CC)[C@@H](C)CC)C(C)C)C(C)C [compound 167] (H-IVLSLDVPIGLLQILLEQEKQEKEKQQATTNARILARV-NH2; N-terminus assumed),0.013,≥ 1
